Entries after “also recorded” stand apart in the source; their conditions may differ.
Key:
human sst2 receptor = human sst2 receptor (Homo sapiens, UniProt P30874); assay: cAMP functional assay in CHO-K1 cells stably expressing human sst2 receptor; assay type: cell-based; settings: for sst2 pEC50±SEM: human sst2, CHO-K1 cells, cAMP, average of two or more independent measurements
[1] = oral administration to male SD rats; assay type: in vivo, rat
CYP450 2C9 = CYP450 2C9 (Homo sapiens, UniProt P11712); assay: in vitro screening CYP450 inhibition assay, 2C9; assay type: in vitro ADME; settings: top concentration tested 10 μM
CYP450 3A4 = CYP450 3A4 (Homo sapiens, UniProt P08684); assay: in vitro screening CYP450 inhibition assay, 3A4; assay type: in vitro ADME; settings: top concentration tested 10 μM
CYP450 2C19 = CYP450 2C19 (Homo sapiens, UniProt P33261); assay: in vitro screening CYP450 inhibition assay, 2C19; assay type: in vitro ADME; settings: top concentration tested 10 μM
hERG channel = hERG channel (Homo sapiens, UniProt Q12809); assay: hERG inhibition binding assay
CYP450 2D6 = CYP450 2D6 (Homo sapiens, UniProt P10635); assay: in vitro screening CYP450 inhibition assay, 2D6; assay type: in vitro ADME; settings: top concentration tested 10 μM
Chain of CYP450 2D6 (P10635 whole entry): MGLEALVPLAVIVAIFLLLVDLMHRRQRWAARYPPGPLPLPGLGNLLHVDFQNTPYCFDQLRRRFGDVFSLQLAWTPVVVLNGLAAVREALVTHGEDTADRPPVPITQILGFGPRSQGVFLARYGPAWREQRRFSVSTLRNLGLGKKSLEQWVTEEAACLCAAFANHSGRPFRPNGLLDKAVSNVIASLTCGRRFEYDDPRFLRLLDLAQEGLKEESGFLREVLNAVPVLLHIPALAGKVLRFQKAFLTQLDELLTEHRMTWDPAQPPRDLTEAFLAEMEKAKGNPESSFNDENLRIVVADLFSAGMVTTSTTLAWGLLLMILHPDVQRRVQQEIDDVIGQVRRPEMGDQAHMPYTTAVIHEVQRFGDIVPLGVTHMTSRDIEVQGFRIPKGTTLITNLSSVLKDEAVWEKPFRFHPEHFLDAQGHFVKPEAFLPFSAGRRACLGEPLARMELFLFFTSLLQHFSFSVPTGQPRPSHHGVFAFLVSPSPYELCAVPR

Chain of human sst2 receptor (P30874 whole entry): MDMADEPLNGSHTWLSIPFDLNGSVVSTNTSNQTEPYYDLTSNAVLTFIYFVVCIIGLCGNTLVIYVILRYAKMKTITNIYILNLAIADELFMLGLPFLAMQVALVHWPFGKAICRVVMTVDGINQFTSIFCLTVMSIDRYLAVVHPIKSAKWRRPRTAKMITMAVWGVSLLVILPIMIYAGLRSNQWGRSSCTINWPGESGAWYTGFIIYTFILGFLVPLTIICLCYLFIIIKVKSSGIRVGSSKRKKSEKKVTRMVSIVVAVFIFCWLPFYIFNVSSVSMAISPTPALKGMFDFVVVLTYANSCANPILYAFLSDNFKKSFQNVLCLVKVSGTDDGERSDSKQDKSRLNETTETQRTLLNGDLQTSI
Chain of hERG channel (Q12809 whole entry): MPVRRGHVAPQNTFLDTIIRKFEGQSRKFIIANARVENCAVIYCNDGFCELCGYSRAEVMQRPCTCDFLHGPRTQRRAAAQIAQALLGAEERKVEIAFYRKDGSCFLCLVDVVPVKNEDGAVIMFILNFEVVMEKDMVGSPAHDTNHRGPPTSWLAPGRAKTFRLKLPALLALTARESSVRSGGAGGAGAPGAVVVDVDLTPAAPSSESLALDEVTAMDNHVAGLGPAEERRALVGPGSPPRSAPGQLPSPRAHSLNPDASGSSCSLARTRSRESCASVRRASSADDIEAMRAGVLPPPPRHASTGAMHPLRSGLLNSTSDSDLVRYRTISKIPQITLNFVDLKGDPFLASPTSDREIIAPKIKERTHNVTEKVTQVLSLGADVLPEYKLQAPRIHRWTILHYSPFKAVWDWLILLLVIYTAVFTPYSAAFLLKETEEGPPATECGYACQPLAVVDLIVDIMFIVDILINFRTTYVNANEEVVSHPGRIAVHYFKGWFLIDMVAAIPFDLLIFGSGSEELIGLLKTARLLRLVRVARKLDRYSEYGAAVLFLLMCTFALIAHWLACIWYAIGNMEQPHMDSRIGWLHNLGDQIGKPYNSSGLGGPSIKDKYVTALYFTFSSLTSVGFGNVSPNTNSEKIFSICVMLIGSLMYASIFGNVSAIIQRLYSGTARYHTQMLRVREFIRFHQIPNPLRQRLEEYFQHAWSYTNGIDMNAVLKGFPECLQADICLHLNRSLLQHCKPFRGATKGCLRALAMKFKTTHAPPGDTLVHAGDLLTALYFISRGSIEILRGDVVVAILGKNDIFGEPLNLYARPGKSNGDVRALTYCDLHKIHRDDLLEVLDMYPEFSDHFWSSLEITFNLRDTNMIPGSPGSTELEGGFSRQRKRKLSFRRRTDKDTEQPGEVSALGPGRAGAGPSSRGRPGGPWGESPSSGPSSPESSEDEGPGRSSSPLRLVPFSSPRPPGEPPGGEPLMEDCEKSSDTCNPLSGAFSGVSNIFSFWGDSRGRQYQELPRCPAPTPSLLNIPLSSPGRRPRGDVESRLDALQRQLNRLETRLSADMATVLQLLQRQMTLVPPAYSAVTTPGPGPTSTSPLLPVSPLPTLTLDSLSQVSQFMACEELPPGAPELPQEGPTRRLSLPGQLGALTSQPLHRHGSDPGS
Chain of CYP450 2C9 (P11712 whole entry): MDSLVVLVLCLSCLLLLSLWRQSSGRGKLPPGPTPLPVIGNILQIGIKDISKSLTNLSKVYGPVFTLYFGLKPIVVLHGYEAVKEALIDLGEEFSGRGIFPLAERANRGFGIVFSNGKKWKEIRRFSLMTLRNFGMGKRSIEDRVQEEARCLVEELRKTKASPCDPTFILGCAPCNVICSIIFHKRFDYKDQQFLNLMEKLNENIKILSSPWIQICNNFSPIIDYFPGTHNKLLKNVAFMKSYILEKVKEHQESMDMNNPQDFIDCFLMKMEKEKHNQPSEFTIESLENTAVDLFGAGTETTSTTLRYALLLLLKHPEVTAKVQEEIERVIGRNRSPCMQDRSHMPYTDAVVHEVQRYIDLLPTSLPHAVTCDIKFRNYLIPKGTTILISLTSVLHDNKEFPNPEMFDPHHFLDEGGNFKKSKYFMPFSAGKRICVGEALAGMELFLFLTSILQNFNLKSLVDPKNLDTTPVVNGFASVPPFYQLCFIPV
Chain of CYP450 2C19 (P33261 whole entry): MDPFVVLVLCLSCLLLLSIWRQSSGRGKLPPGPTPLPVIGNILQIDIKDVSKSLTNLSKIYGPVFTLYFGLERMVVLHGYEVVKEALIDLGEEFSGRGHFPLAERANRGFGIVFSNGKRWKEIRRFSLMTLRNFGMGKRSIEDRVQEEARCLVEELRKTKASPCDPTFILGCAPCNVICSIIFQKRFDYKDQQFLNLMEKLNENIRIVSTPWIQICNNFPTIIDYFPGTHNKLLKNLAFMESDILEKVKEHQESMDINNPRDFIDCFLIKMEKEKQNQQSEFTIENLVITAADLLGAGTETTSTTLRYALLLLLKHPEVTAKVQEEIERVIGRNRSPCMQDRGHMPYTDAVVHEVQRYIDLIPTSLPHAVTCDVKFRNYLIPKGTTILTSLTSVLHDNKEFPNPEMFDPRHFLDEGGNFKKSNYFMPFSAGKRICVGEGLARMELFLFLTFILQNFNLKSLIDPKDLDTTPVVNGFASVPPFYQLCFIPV
Chain of CYP450 3A4 (P08684 whole entry): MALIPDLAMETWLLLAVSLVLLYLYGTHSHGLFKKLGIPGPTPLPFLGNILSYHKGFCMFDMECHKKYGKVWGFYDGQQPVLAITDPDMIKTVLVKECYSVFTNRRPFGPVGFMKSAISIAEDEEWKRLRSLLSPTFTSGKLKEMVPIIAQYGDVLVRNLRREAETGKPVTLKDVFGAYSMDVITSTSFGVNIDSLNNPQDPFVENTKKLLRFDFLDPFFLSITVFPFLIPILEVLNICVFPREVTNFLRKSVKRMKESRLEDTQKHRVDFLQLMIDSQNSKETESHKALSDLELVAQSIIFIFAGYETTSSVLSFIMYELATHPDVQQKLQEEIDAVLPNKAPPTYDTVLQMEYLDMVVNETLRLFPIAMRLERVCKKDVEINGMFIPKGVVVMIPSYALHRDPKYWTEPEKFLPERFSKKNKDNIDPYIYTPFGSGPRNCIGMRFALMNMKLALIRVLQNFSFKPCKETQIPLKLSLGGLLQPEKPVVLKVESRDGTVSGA

sst2 pEC50±SEM (human sst2 receptor)	Compound	other results
6.9 ± 0.1	Cc1cc(Cl)cc(N2C=Nc3cc(C)c(-c4cccc(NS(C)(=O)=O)c4)cc3C2C(=O)N(C)C[C@@H]2CCCN2)c1 (some centres unmarked) [Compound 23]	
8.3 ± 0.2	Cc1cc(Cl)cc(N2C=Nc3cc(C)c(-c4ccc5[nH]c(=O)[nH]c5c4)cc3C2C(=O)N(C)C[C@@H]2CCCN2)c1 (some centres unmarked) [Compound 24]	
8.1 ± 0.1	Cc1cc(Cl)cc(N2C=Nc3cc(C)c(-c4cncc(O)c4)cc3C2C(=O)N(C)C[C@@H]2CCCN2)c1 (some centres unmarked) [Compound 25]	
8.7 ± 0.0	Cc1cc(Cl)cc(N2C=Nc3cc(C)c(-c4cc(F)ccc4O)cc3C2C(=O)N(C)C[C@@H]2CCCN2)c1 (some centres unmarked) [Compound 29]	
9.4 ± 0.1	Cc1cc(Cl)cc(N2C=Nc3cc(C)c(-c4cc(O)cc(C#N)c4)cc3C2C(=O)N(C)C[C@@H]2CCCN2)c1 (some centres unmarked) [Compound 30]	sst2 agonist activity (in words) (human sst2 receptor; human sst2, cAMP): tolerable

Continued, compound first:

Compound	sst2 pEC50±SEM (human sst2 receptor)	other results
Cc1cc(C)cc(N2C=Nc3cc(Cl)c(-c4cccc(O)c4)cc3C2C(=O)NC[C@H](C)N)c1 (some centres unmarked) [Compound 5]		sst2 agonist activity (in words) (human sst2 receptor; human sst2, cAMP): completely suppressed its ability to reduce cAMP production
Cc1cc(C)cc(N2C=Nc3ccc(-c4cccc(O)c4)cc3C2C(=O)N(C)C[C@H](C)N)c1 (some centres unmarked) [Compound 6]		decrease of sst2 agonist activity relative to compound 4 (human sst2 receptor; human sst2, cAMP): more than 10 fold
CC[C@H](N)CN(C)C(=O)C1c2cc(-c3cccc(O)c3)c(Cl)cc2N=CN1c1cc(C)cc(C)c1 (some centres unmarked) [Compound 7]	8.0 ± 0.1	enhancement of sst2 potency relative to compound 4 (human sst2 receptor; human sst2, cAMP): about 3 fold
CC[C@H](N)CN(C)C(=O)C1c2cc(-c3cccc(O)c3)c(C)cc2N=CN1c1cc(C)cc(C)c1 (some centres unmarked) [Compound 8]	8.4 ± 0.2	
Cc1cc(C)cc(N2C=Nc3cc(C)c(-c4cccc(O)c4)cc3C2C(=O)N(C)C[C@@H]2CCCN2)c1 (some centres unmarked) [Compound 9]	8.9 ± 0.1	
Cc1cc(Cl)cc(N2C=Nc3cc(C)c(-c4cccc(O)c4)cc3C2C(=O)N(C)C[C@@H]2CCCN2)c1 (some centres unmarked) [Compound 10]	9.5 ± 0.2	
Cc1cc(F)cc(N2C=Nc3cc(C)c(-c4cccc(O)c4)cc3C2C(=O)N(C)C[C@@H]2CCCN2)c1 (some centres unmarked) [Compound 11]	9.0 ± 0.1	
Cc1cc(Cl)cc(N2C=Nc3cc(C)c(-c4ccccc4)cc3C2C(=O)N(C)C[C@@H]2CCCN2)c1 (some centres unmarked) [Compound 12]	7.3 ± 0.0	sst2 agonist activity (in words) (human sst2 receptor; human sst2, cAMP): significantly diminished sst2 agonist activity
Cc1cc(Cl)cc(N2C=Nc3cc(C)c(-c4cccc(C#N)c4)cc3C2C(=O)N(C)C[C@@H]2CCCN2)c1 (some centres unmarked) [Compound 13]	8.3 ± 0.1	
Cc1cc(Cl)cc(N2C=Nc3cc(C)c(-c4cncc(C#N)c4)cc3C2C(=O)N(C)C[C@@H]2CCCN2)c1 (some centres unmarked) [Compound 14]	7.9 ± 0.4	
Cc1cc(Cl)cc(N2C=Nc3cc(C)c(-c4cccc(C(F)(F)F)c4)cc3C2C(=O)N(C)C[C@@H]2CCCN2)c1 (some centres unmarked) [Compound 15]	7.3 ± 0.0	
Cc1cc(Cl)cc(N2C=Nc3cc(C)c(-c4cccc(Cl)c4)cc3C2C(=O)N(C)C[C@@H]2CCCN2)c1 (some centres unmarked) [Compound 16]	7.4 ± 0.0	
Cc1cc(Cl)cc(N2C=Nc3cc(C)c(-c4cnn(C)c4)cc3C2C(=O)N(C)C[C@@H]2CCCN2)c1 (some centres unmarked) [Compound 17]	6.8 ± 0.1	sst2 agonist activity (in words) (human sst2 receptor; human sst2, cAMP): substantially reduced potency
Cc1cc(Cl)cc(N2C=Nc3cc(C)c(-c4cc(F)cc(F)c4)cc3C2C(=O)N(C)C[C@@H]2CCCN2)c1 (some centres unmarked) [Compound 19]	8.4 ± 0.0	
COc1cc(F)cc(-c2cc3c(cc2C)N=CN(c2cc(C)cc(Cl)c2)C3C(=O)N(C)C[C@@H]2CCCN2)c1 (some centres unmarked) [Compound 20]	8.2 ± 0.1	
Cc1cc(Cl)cc(N2C=Nc3cc(C)c(-c4cccc(F)c4O)cc3C2C(=O)N(C)C[C@@H]2CCCN2)c1 (stereo partly drawn) [Compound 28, 3-(3-chloro-5-methylphenyl)-6-(3-fluoro-2-hydroxyphenyl)-N,7-dimethyl-N-{[(2S)-pyrrolidin-2-yl]methyl}-3,4-dihydroquinazoline-4-carboxamide]		oral exposure (in words) [1]: limited oral exposure; CYP 2C9 inhibition (in words) (CYP450 2C9): little inhibition; also recorded: no inhibition; CYP 3A4 inhibition (in words) (CYP450 3A4): little inhibition; also recorded: no inhibition; CYP 2C19 inhibition (in words) (CYP450 2C19): little inhibition; also recorded: no inhibition; hERG inhibition (in words) (hERG channel): moderate inhibitors; also recorded: weak inhibition; CYP 2D6 inhibition (in words) (CYP450 2D6): little inhibition; also recorded: no inhibition
Cc1cc(Cl)cc(N2C=Nc3cc(C)c(-c4cc(F)cc(C(N)=O)c4)cc3C2C(=O)N(C)C[C@@H]2CCCN2)c1 (some centres unmarked) [Compound 31]		hERG inhibition (in words) (hERG channel): moderate inhibitors; sst2 agonist activity (in words) (human sst2 receptor; human sst2, cAMP): as potent as compound 26

Reference: PMC7508466 (Bioorganic & medicinal chemistry letters, 2020)
